For this assay, the system named is P388 leukemia ip, CD2F1 mice, survival T/C. The assay is described as follows: NCI In Vivo Anticancer Drug Screen. Data for tumor model P388 Leukemia (intraperitoneal) in CD2F1 (CDF1) mice. The following applies: endpoint: median survival time, higher = longer survival. The procedure, abridged:
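Mice carrying the transplanted tumor received test compound or vehicle. Survival was recorded in each group, and the value is the treated-group measurement divided by that of the vehicle-treated control group.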

The mark [1] stands for this setting: dose: 60.0 mg/kg/injection, schedule: Q01DX005 (ip), vehicle: saline with Tween-80.
Where [2] appears, read: dose: 120.0 mg/kg/injection, schedule: Q01DX005 (ip), vehicle: saline with Tween-80.
Setting [3] is: dose: 240.0 mg/kg/injection, schedule: Q01DX005 (ip), vehicle: saline with Tween-80.
Where [4] appears, read: dose: 50.0 mg/kg/injection, schedule: Q01DX005 (ip), vehicle: saline with Tween-80.
The mark [5] stands for this setting: dose: 100.0 mg/kg/injection, schedule: Q01DX005 (ip), vehicle: saline with Tween-80.
[6] abbreviates: dose: 200.0 mg/kg/injection, schedule: Q01DX005 (ip), vehicle: saline with Tween-80.

SMILES strings stand for the structures. Values joined by “and” are separate entries in the source; they are usually repeats but may differ in a detail not shown here. Identical values can stand only once. Toxic doses and inconclusive results are not listed.

As to `O=C(Nc1ccc(Cl)cc1)Nc1nnc2nc(CC(=O)c3ccc4ccccc4c3)c(=O)[nH]n12`, the T/C is, setting by setting: under setting [1], 97 % of control; under setting [2], 99 % of control; under setting [3], 97 % of control.
Consider `CCCCS(=O)(=O)CCC(N)C(=O)O` (configuration not stated), for which the T/C was 94 % of control under setting [1] and 90 % of control under setting [2].
Consider `CC(C)CC(NC(c1ccccc1)P(=O)(O)O)C(=O)O` (configuration not stated), for which the T/C is 100 % of control under setting [1], 96 % of control under setting [2] and 91 % of control under setting [3].
As to `OCC1OC(OCC2OC(OC3(CO)OC(CO)C(O)C3O)C(O)C(O)C2O)C(O)C(O)C1O` (configuration not stated), the T/C by setting is: (dose: 100.0 mg/kg/injection, schedule: Q01DX001 (ip), vehicle: saline) 102 % of control; (dose: 200.0 mg/kg/injection, schedule: Q01DX001 (ip), vehicle: saline) 103 % of control; (dose: 400.0 mg/kg/injection, schedule: Q01DX001 (ip), vehicle: saline) 93 % of control.
`COc1cccc2c1C(=N)c1c(O)c3c(c(O)c1C2=O)C[C@@](O)(C(O)CO)C[C@@H]3OC1CC(N2CCOCC2)C(O)C(C)O1` (some centres not stated): the T/C was 112 % of control and 115 % of control (dose: 3.12 mg/kg/injection, schedule: Q04DX003 (ip), vehicle: water); 118 % of control (dose: 6.25 mg/kg/injection, schedule: Q04DX003 (ip), vehicle: water); 108 % of control and 120 % of control (dose: 12.5 mg/kg/injection, schedule: Q04DX003 (ip), vehicle: water); 105 % of control (dose: 18.7 mg/kg/injection, schedule: Q04DX003 (ip), vehicle: water); 115 % of control and 161 % of control and 221 % of control (dose: 50.0 mg/kg/injection, schedule: Q04DX003 (ip), vehicle: water); 118 % of control (dose: 75.0 mg/kg/injection, schedule: Q04DX003 (ip), vehicle: water).
Turning to `O=C1N(CCO)C2=CCCCC23c2[nH]c4ccccc4c2CCN13` (configuration not stated), the T/C by setting is: under setting [4], 104 % of control; under setting [5], 102 % of control; under setting [6], 102 % of control.
Turning to `O=CNc1cc(NC=O)ncn1`, the T/C by setting is: (dose: 15.0 mg/kg/injection, schedule: Q01DX009 (ip), vehicle: saline with Tween-80) 99 % of control; (dose: 30.0 mg/kg/injection, schedule: Q01DX009 (ip), vehicle: saline with Tween-80) 97 % of control; (dose: 60.0 mg/kg/injection, schedule: Q01DX009 (ip), vehicle: saline with Tween-80) 103 % of control.
Turning to `COC(=O)c1nc(=S)[nH]c(C(=O)OC)c1C(=O)c1ccc2ccccc2c1`, the T/C (dose: 60.0 mg/kg/injection, schedule: Q01DX005 (ip), vehicle: Klucel + Tween-80) was 94 % of control; the T/C (dose: 120.0 mg/kg/injection, schedule: Q01DX005 (ip), vehicle: Klucel + Tween-80) was 95 % of control; the T/C (dose: 240.0 mg/kg/injection, schedule: Q01DX005 (ip), vehicle: Klucel + Tween-80) was 95 % of control.
Take `CC1OC(OC23C(=O)CC(C)(O)CC2(O)C=CC2=C3C(=O)c3ccc(C4CC(OC5CCC(OC6CC(O)C(O)C(C)O6)C(C)O5)C(O)C(C)O4)c(O)c3C2=O)CCC1O` (configuration not stated): the T/C was 104 % of control (dose: 1.0 mg/kg/injection, schedule: Q01DX005 (ip), vehicle: DMSO); 105 % of control (dose: 2.0 mg/kg/injection, schedule: Q01DX005 (ip), vehicle: DMSO); 99 % of control (dose: 4.0 mg/kg/injection, schedule: Q01DX005 (ip), vehicle: DMSO); 100 % of control (dose: 6.25 mg/kg/injection, schedule: Q04DX003 (ip), vehicle: Klucel (hydroxypropylcellulose) (HPC)); 91 % of control (dose: 12.5 mg/kg/injection, schedule: Q04DX003 (ip), vehicle: Klucel (hydroxypropylcellulose) (HPC)); 100 % of control (dose: 25.0 mg/kg/injection, schedule: Q04DX003 (ip), vehicle: Klucel (hydroxypropylcellulose) (HPC)).
Turning to `O=C1OC(OCC#CCOC2OC(=O)C(Cl)=C2Cl)C(Cl)=C1Cl` (configuration not stated), the T/C is, setting by setting: (dose: 15.0 mg/kg/injection, schedule: Q01DX005 (ip), vehicle: saline with Tween-80) 112 % of control; (dose: 30.0 mg/kg/injection, schedule: Q01DX005 (ip), vehicle: saline with Tween-80) 105 % of control; under setting [1], 115 % of control and 93 % of control.
`O=C(Nc1cccc2ccccc12)Oc1cccc2cccnc12`: the T/C by setting is: (dose: 25.0 mg/kg/injection, schedule: Q01DX009 (ip), vehicle: saline with Tween-80) 89 % of control; (dose: 50.0 mg/kg/injection, schedule: Q01DX009 (ip), vehicle: saline with Tween-80) 86 % of control; (dose: 100.0 mg/kg/injection, schedule: Q01DX009 (ip), vehicle: saline with Tween-80) 89 % of control.
Regarding `O=c1[nH]c(=O)n(C(c2ccccc2)(c2ccccc2)c2ccccc2)cc1N(CCO)CCO`, the T/C by setting is: (dose: 50.0 mg/kg/injection, schedule: Q01DX005 (ip), vehicle: Klucel (hydroxypropylcellulose) (HPC)) 100 % of control; (dose: 100.0 mg/kg/injection, schedule: Q01DX005 (ip), vehicle: Klucel (hydroxypropylcellulose) (HPC)) 97 % of control; (dose: 200.0 mg/kg/injection, schedule: Q01DX005 (ip), vehicle: Klucel (hydroxypropylcellulose) (HPC)) 98 % of control.
With `O=c1c2ccccc2nc(-c2ccccc2Cl)n1/N=C/c1ccc(Cl)cc1Cl`, the T/C under setting [4] was 93 % of control, the T/C under setting [5] was 103 % of control and the T/C under setting [6] was 102 % of control.
On to `Cc1ccc(N=CN(C)Sc2ccc(C(C)(C)C)cc2)c(C)c1`, for which the T/C is, setting by setting: (dose: 50.0 mg/kg/injection, schedule: Q01DX009 (ip), vehicle: Klucel (hydroxypropylcellulose) (HPC)) 103 % of control; (dose: 100.0 mg/kg/injection, schedule: Q01DX009 (ip), vehicle: Klucel (hydroxypropylcellulose) (HPC)) 117 % of control.
As to `N#Cc1ccccc1C#N`, the T/C was 98 % of control (dose: 1.56 mg/kg/injection, schedule: Q04DX003 (ip), vehicle: saline); 98 % of control (dose: 3.13 mg/kg/injection, schedule: Q04DX003 (ip), vehicle: saline); 100 % of control (dose: 6.25 mg/kg/injection, schedule: Q04DX003 (ip), vehicle: saline); 104 % of control (dose: 12.5 mg/kg/injection, schedule: Q04DX003 (ip), vehicle: saline with Tween-80); 100 % of control (dose: 12.5 mg/kg/injection, schedule: Q04DX003 (ip), vehicle: saline); 95 % of control (dose: 25.0 mg/kg/injection, schedule: Q04DX003 (ip), vehicle: saline with Tween-80).
On to `CC(NC(=O)C1CCCN1C(=O)OC(C)(C)C)C(=O)OCc1ccccc1` (configuration not stated), for which the T/C (dose: 50.0 mg/kg/injection, schedule: Q01DX005 (ip), vehicle: saline + Tween-80 + alcohol) was 98 % of control; the T/C (dose: 100.0 mg/kg/injection, schedule: Q01DX005 (ip), vehicle: saline + Tween-80 + alcohol) was 98 % of control; the T/C (dose: 200.0 mg/kg/injection, schedule: Q01DX005 (ip), vehicle: saline + Tween-80 + alcohol) is 99 % of control.
As to `COc1ccc(CCN(C=O)c2ccc(OC)c(OC)c2)cc1OC`, the T/C is, setting by setting: (dose: 25.0 mg/kg/injection, schedule: Q01DX009 (ip), vehicle: other) 115 % of control; (dose: 50.0 mg/kg/injection, schedule: Q01DX009 (ip), vehicle: other) 108 % of control; (dose: 100.0 mg/kg/injection, schedule: Q01DX009 (ip), vehicle: other) 102 % of control; (dose: 200.0 mg/kg/injection, schedule: Q01DX009 (ip), vehicle: other) 108 % of control; (dose: 400.0 mg/kg/injection, schedule: Q01DX009 (ip), vehicle: other) 96 % of control.
As to `CC(C)=Nn1c(=O)oc2cc(Cl)ccc2c1=O`, the T/C is 95 % of control (dose: 60.0 mg/kg/injection, schedule: Q01DX005 (ip), vehicle: Klucel (hydroxypropylcellulose) (HPC)); 100 % of control (dose: 120.0 mg/kg/injection, schedule: Q01DX005 (ip), vehicle: Klucel (hydroxypropylcellulose) (HPC)); 93 % of control (dose: 240.0 mg/kg/injection, schedule: Q01DX005 (ip), vehicle: Klucel (hydroxypropylcellulose) (HPC)).
Consider `Cc1c(C(=O)NCCN(C)C)n(C)c(=O)c2ccccc12`, for which the T/C is, setting by setting: (dose: 60.0 mg/kg/injection, schedule: Q01DX005 (ip), vehicle: saline) 98 % of control; (dose: 120.0 mg/kg/injection, schedule: Q01DX005 (ip), vehicle: saline) 93 % of control; (dose: 240.0 mg/kg/injection, schedule: Q01DX005 (ip), vehicle: saline) 94 % of control.
Regarding `O=C(NC(Cc1ccc(O)cc1)C(=O)NC(Cc1c[nH]c2ccccc12)C(=O)O)OCc1ccccc1` (configuration not stated), the T/C was 106 % of control under setting [4], 103 % of control under setting [5] and 106 % of control under setting [6].
With `S=C(SCc1cc(Cl)cc2c1OCOC2)N1CCSCC1`, the T/C reads like this: under setting [1], 105 % of control; under setting [2], 92 % of control; under setting [3], 92 % of control.

The values are drawn from PubChem BioAssay AID330 (DTP/NCI, 2004).
